We go through 1 molecule from US20110224197A1, “PYRIMIDINES AND PYRIDINES USEFUL AS INHIBITORS OF PROTEIN KINASES” (Vertex Pharmaceuticals Incorporated, priority 2008, published 2011).

Experiment [1] concerns human umbilical vein endothelial cells (HUVEC). As to the kind of experiment: In vitro model of angiogenesis using HUVEC and skin fibroblasts. It is filed as cell-based. The settings on record: HUVEC cultures. From the text:
Compounds are screened for the ability to enhance angiogenesis in human umbilical vein endothelial cells (HUVEC). This method, adapted from Nakatsu et al., Microvas. Res. 2003, describes a protocol that recapitulates the major events essential for new vessel growth: budding, cell migration, cell proliferation, lumen formation, branching, and anastomosis.
HUVEC are used between P3 and P4. HUVEC are mixed with dextran coated cytodex 3 micro-carriers (Amersham Pharmacia) at a concentration of 400 HUVEC per bead in 1 ml of EGM-2 (2% FBS) medium (Clonetics). Beads with cells are then shaken gently every 20 minutes for 4 hours at 37° C. and 5% CO2. After incubating, beads with cells are transferred to a T-25 tissue culture flask and left for 12-16 hours in 5 ml of EGM-2 at 37° C. and 5% CO2.
The following day, beads with cells are washed three times with EGM-2 and re-suspended at a concentration of 200 cell-coated beads/ml in 2.5 mg/ml of fibrinogen (Sigma) with 0.15 U/ml of aprotinin (Sigma) at a pH of 7.4.
500 uL of fibrinogen/bead solution is then added to 0.625 U of thrombin (Sigma) in one well of a 24 well tissue culture plate. Fibrinogen/Bead solution is allowed to clot for 5 minutes at room temperature and then at 37° C. and 5% CO2 for 20 minutes. 1 mL of EGM-2 with 0.15 U/mL of aprotinin is then added to each well and equilibrated with the fibrin clot for 30 minutes at 37° C. and 5% CO2.
Next, media is removed from the well and replaced with 1 mL of fresh medium. […]
Angiogenesis is scored by quantification of images captured on an inverted microscope at 10× and 20× magnification for vessel length, number of vessels and branches per bead using NIH Image J software. […] YFP positive HUVEC are then cultured as described above and quantification of vessel formation is determined by calculating the area under the threshold fluorescence using NIH Image J software. In both cases, enhanced angiogenesis is determined by comparing compound treated cultures with a DMSO control culture at the same time point.

The test system of experiment [2] is E16 rat hippocampal or cortical neurons. As to the kind of experiment: Axonal Branching Assay. It is filed as cell-based. As to the method:
Compounds are tested for the ability to enhance axonal branching in E16 rat hippocampal or cortical neurons.
1 mg/ml stock of PDL is diluted into 100 μg/ml in DI water. The glass coverslips are coated for at least 1 hour at 37° C. prior to doing the dissection. PDL is aspirated and the plates are rinsed with PBS and air-dried in hood.
Cortical or hippocampal lobes are combined with 9 mL of Base media (Neurobasal+Pen/Strep) and put on ice. 1 mL of 10× trypsin solution is added and the mixture is swirled gently. The tissue is then digested via incubation in a 37° C. waterbath for 20 minutes. After 20 minutes, 10 μl/ml DNase (100 μL DNase) is added and the mixture is incubated for another 5 minutes.
The cells are spun at 1000 rpm for 1 minute. The enzyme solution is then removed without removing any of the brain fragments sitting on the bottom. […] The cells are counted in a hemacytometer and seeded at 5000-10000 cells/well in a 24 well plate with glass coverslip inserts coated with PDL. […]
Images are captured at 10× and 20× on an upright microscope and axonal branching is determined by quantification of area under threshold fluorescence of neurofilament Alexa 488 per cell. Dendritic branching is determined by quantification of area under threshold fluorescence of MAP2 Alexa 568 per cell. Alternatively, branching can be determined by manual counting of branch points per cell. […]

The mark [3] stands for this setting: concentrations shown to induce β-catenin.

On to `Cc1nc(-c2ccccc2Cl)nc(Nc2n[nH]c3ncc(F)cc23)c1C` [Compound I-37, N-(2-(2-chlorophenyl)-5,6-dimethylpyrhnidin-4-yl)-5-fluoro-1H-pyrazolo[3,4-b]pyridin-3-amine], for which the “vessel and network formation” value in experiment [1] (10 nM, 7 days) is “increase vessel and network formation”. For the same molecule, in experiment [1] (setting [3]), the cell proliferation entry is “increased cell proliferation was observed” and the vessel formation result was “vessel formation was inhibited”. In addition, the “axonal and dendritic branching” value in experiment [2] (10 nM, 7 days) was “increased axonal and dentritic branching”. Also, the axon growth entry in experiment [2] (setting [3]) is reported as “axon growth was inhibited”.
